Source: patent publication US20210315927A1, “TREATING ARDS USING A POLY-OXYGENATED ALUMINUM HYDROXIDE” (HEMOTEK LLC, priority 2020, published 2021)

Test system: mechanically-induced ARDS in rodents
Design: species or system male Sprague Dawley rats
Conditions: rat, in vivo
Excerpt: The following protocol and experimental procedures were approved by the Thomas D Morris, Inc. Institutional Animal Care and Use Committee (Protocol #20-007) and are consistent with the National Institutes of Health guidelines for the humane treatment of laboratory animals. Study subjects were male Sprague Dawley rats (N=21; 250-300 g; 8-10 weeks old; Charles River Laboratories, Inc., Wilmington, Mass. housed in pairs with a 12/12 day night cycle and provided ad libitum access to feed and water.
Animals were inducted with 1-5% isoflurane in air for initial preoperative preparation and cannulations. The anesthetic plane was maintained with a continuous intravenous infusion (0.1 mg/kg/min) into a femoral vein using a pre-filled syringe of alfaxalone acetate (Alfaxan, Schering-Plough Animal Health, Welwyn Garden City, UK) that was connected to a syringe pump (Genie Touch™, Kent Scientific, Torrington, Conn.). A second femoral vein was cannulated to be used for infusion of IV treatments. A femoral artery cannula was connected to a pressure transducer for continuous monitoring of arterial blood pressures (BIOPAC MP-150, BIOPAC Systems, Goleta, Calif.). The same femoral artery cannula was also used to collect blood samples for analysis of blood gases and chemistry (ABL90 Flex, Radiometer, Denmark). […]

poly-oxygenated aluminum hydroxide [Ox66™]
supraphysiologic levels of PAO2 or sO2: did not show supraphysiologic levels of PAO2 or sO2
